The source made the active and inactive calls. How the calls were made is not given here. Bounds are passed on as bounds.

In the experiment the test system is INS-1E Gaussia luciferase insulin secretion, no glucose, luminescence. Kind of experiment: insulin secretion activators without glucose, dose response, counter-screen for glucose-dependent insulin secretion activators, cell-based, INS-1E, Gaussia luciferase, luminescence, cherry-pick (AID 977606). A general note: The purpose of a counterscreen is to sort out artefacts and off-target activity.
Regarding `COC(=O)C1=C(C)N(Cc2cccc(C(F)(F)F)c2)C(=NCc2ccc(OC)cc2)NC1c1cccc(F)c1` (stereo not drawn), the AC40 is 3.75 µM. `CC(C)CC#Cc1ccc([C@H]2[C@H]3CN(C(=O)c4cnccn4)CC(=O)N3[C@H]2CO)cc1`: the AC40 is > 35 µM (inactive). Then `COc1ccc(-n2c(-c3ccc(Cl)cc3)c[nH]c2=S)cc1`, with 17.1 µM; and `COc1ccc(Br)cc1C(=O)Nc1cc(C)cc(C)c1`, with 6.69 µM; and `CC(C)CC#Cc1ccc2c(c1)O[C@@H](CN(C)Cc1ccccc1)[C@H](C)CN([C@H](C)CO)S2(=O)=O`, with 8.93 µM. Then `CCOc1ccc(Nc2oc(-c3ccc(Cl)cc3)nc2C#N)cc1`, with 5.43 µM; and `COc1ccccc1C(=O)Nc1c2c(nn1-c1cccc(C)c1C)CS(=O)(=O)C2`, with 13 µM; and `Cc1ccc(CNc2nc(NCc3ccccc3)nc3ccsc23)c(C)c1`, with 5.58 µM. `CC(C)(C)OC(=O)N[C@@H](Cc1ccccc1)c1nnc(S(=O)(=O)Cc2ccccc2)o1`: the AC40 was 2.63 µM. Then `CCCc1cc(-c2nc(-c3ccc(C)cc3)cs2)ccn1`, with 7.92 µM. Then `Cc1nnn(-c2nonc2N)c1C(=O)N/N=C/c1cccc2ccccc12`, with 6.5 µM; and `O=C(Nc1ccccc1N1CCOCC1)C1=NN(c2ccccc2)C(=O)CC1`, with 24.3 µM; and `CCOC(=O)Cn1c(=NC(=O)c2nc3ccccc3s2)sc2cc(S(N)(=O)=O)ccc21`, with 18.3 µM. As to `CCc1c(C)sc(NC(=O)c2cc(-c3ccc(OC)c(OC)c3)on2)c1C#N`, the AC40 was 6.43 µM. In the case of `COc1cc2c3nnc(-c4ccccc4)c-3cn(Cc3ccccc3F)c2cc1OC` it was 15.6 µM. On to `CN(C)C=NC(=O)c1ccc(N2CCN(c3ncc(C(F)(F)F)cc3Cl)CC2)cc1`, for which the AC40 was 5.6 µM. Then `O=C(Cn1nnc(-c2ccccc2)n1)N=Nc1c(O)[nH]c2ccccc12`, with 8.24 µM; and `COc1ccc(NC(=O)COc2ccc(C(=O)NC3CCCc4ccccc43)cc2OC)cc1` (stereo not drawn), with 5.92 µM; and `CCSc1nnc(NC(=O)c2csc3c2CCCC3)s1`, with 5.49 µM. `Cc1ccccc1S(=O)(=O)N1CC(=O)N2[C@@H](CO)[C@H](c3ccc(C#CCC4CCCC4)cc3)[C@@H]2C1`: the AC40 is 22.6 µM. For `Cc1cccc(S(=O)(=O)N2CCCCN3[C@@H](CO)[C@@H](c4ccc(C#CC(C)C)cc4)[C@@H]3C2)c1`, the AC40 was 7.76 µM.

In the case of `COC(=O)c1ccc(C(=O)Nc2cc(Cl)ccc2Cl)cc1NC(=O)c1ccccc1C`, the AC40 is 1.39 µM. Take `COc1cc2ccccc2cc1C(=O)Nc1ccc2oc(=O)ccc2c1`: the AC40 is 9.12 µM. In the case of `COc1ccc(S(=O)(=O)N2CCc3ccccc32)cc1C(=O)Nc1cccnc1` it was 16.3 µM; in that of `Cc1ccc(-c2ccc(C3[C@@H]4CN(Cc5cccc(F)c5)C[C@H]3N4)cc2)cc1` (stereo partly drawn), 2.14 µM; in that of `CC(C)Sc1nc2c(c(=O)[nH]c(=O)n2C)n1Cc1ccc(Cl)cc1`, 14 µM. Then `O=C(Nc1cccc(Cl)c1)Nc1nnc(CSCCOc2ccc(Cl)cc2)s1`, with 3.41 µM. Consider `C[C@@H](NC(=O)C[C@@H]1C[C@@H]2c3cc(NC(=O)Nc4ccccc4F)ccc3O[C@@H]2[C@@H](CO)O1)c1ccccc1`, for which the AC40 is 34.3 µM.

For `Cc1cccc(OCC(=O)Nc2ccc(NC(=O)c3ccco3)cc2)c1`, the AC40 is 12.4 µM. For the compound `Fc1cccc(CN2C[C@@H]3N[C@H](C2)C3c2ccc(/C=C/c3ccccc3)cc2)c1` (stereo partly drawn), the AC40 was 6.41 µM. Consider `CN1CCN(CC(O)COC(c2ccc(Cl)cc2)c2ccc(Cl)cc2)CC1` (stereo not drawn), for which the AC40 is 13.3 µM.

In the case of `COC(=O)Cn1cc(C#N)c2ccccc21`, the AC40 was > 35 µM (inactive).

On to `CC(=O)Nc1ccc(Nc2nc(-c3c(C)nc4ccccn34)cs2)cc1`, for which the AC40 is 4.46 µM.

Take `COC(=O)C1=C(C)N(C)C(=NCc2cccc(C(F)(F)F)c2)NC1c1ccc(C(F)(F)F)cc1` (stereo not drawn): the AC40 is 4.7 µM. In the case of `COc1ccc(C#Cc2ccc([C@@H]3[C@@H](CO)N4CCCCN(Cc5ccccc5F)C[C@@H]34)cc2)cc1` it was 11.1 µM. In the case of `COC(=O)C1=C(C)N(Cc2ccc(C(F)(F)F)cc2)C(=NCc2ccccc2)NC1c1ccc(Cl)cc1` (stereo not drawn), the AC40 was 10.8 µM.

With `CCOc1ccc2ccc(OCC)c(/C=N/n3cnnc3)c2c1`, the AC40 is 34.8 µM. Then `Cc1ccc2oc(-c3ccc(NC(=O)c4ccc5c(c4)OCO5)cc3)nc2c1`, with 1.1 µM; and `CC(C)(C)c1ccc(-c2cc(-c3ccccc3O)[nH]n2)cc1`, with 5.34 µM. Regarding `CCn1c(O)c(/C=N/N=C/c2ccc(OC)cc2)c2cc(C3=NNC(=O)CC3)ccc21`, the AC40 was 4.2 µM. In the case of `NC1=NC[C@H](CC2CCCCC2)N1CCc1cc(C(F)(F)F)cc(C(F)(F)F)c1`, the AC40 was 9.8 µM. On to `O=C(Nc1ccc2c(c1)OCO2)c1sc2cc(Cl)ccc2c1Cl`, for which the AC40 was 4.98 µM. Then `CCCN1Cc2cccc(C(=O)NCc3ccccc3)c2C1=O`, with > 35 µM (inactive); and `CCOC(=O)c1cnc2c(Cl)c(Cl)ccc2c1NCCN1CCOCC1`, with 26.5 µM; and `Cc1ccc(C(=O)c2sc3nc4c(cc3c2N)CCC4)cc1`, with 11.3 µM. In the case of `Cc1ccccc1C(=O)Nc1nnc(-c2ccc(C(C)(C)C)cc2)s1` it was 4.97 µM. As to `Oc1ccccc1-c1cc(C(F)(F)C(F)F)nc(-c2ccccc2)n1`, the AC40 was 3.86 µM. Then `CCCCCCc1cc2cc(C(=O)Nc3cccc(OC)c3)c(=O)oc2cc1O`, with 13.4 µM. Then `Cc1ccc(Oc2ncc(-c3ccc(Cl)cc3)cn2)cc1`, with 4.48 µM. In the case of `CCOc1nc(-c2ccccc2)c2cc(Br)ccc2n1`, the AC40 is 21.9 µM.

Consider `CCCCc1c(-c2ccccc2OC)ncn1CCc1ccccc1`, for which the AC40 was 9.48 µM. `CS(=O)(=O)c1ccc2nc(NC(=O)Nc3ccc(Cl)c(Cl)c3)sc2c1`: the AC40 was 1.92 µM. Regarding `COc1nc(-c2ccc(Cl)cc2)ccc1-c1noc(-c2ccco2)n1`, the AC40 is 16 µM. For the compound `CCOc1ccc(/C=N/NC(=O)c2cc(-c3ccco3)nc3ccccc23)cc1`, the AC40 was 6.73 µM. Then `Cc1nc2c(=O)n(C)c(=O)n(C)c2nc1Cl`, with 23.6 µM; and `Cc1ccccc1-c1ccc(C2[C@@H]3CN(C(=O)Nc4cccc(F)c4)C[C@H]2N3)cc1` (stereo partly drawn), with 7.52 µM. In the case of `COC(=O)C1=C(C)N(Cc2cccc(C(F)(F)F)c2)C(=NCc2ccc(OC)cc2)NC1c1ccc(F)cc1` (stereo not drawn) it was 8.44 µM. In the case of `OC[C@@H]1[C@@H](c2ccc(C#CC3CCCC3)cc2)[C@@H]2CN(CCC(F)(F)F)CCCCN12` it was 8.18 µM; in that of `O=C(Nc1ccc(Cl)c(Cl)c1)Nc1nc(-c2ccccc2)cs1`, 4.07 µM; in that of `COc1ccccc1CCn1cnc(-c2ccccc2OC)c1CC(C)C`, 11.4 µM. Consider `O=C(N/N=C/c1ccc(O)cc1O)NC12CC3CC(CC(C3)C1)C2`, for which the AC40 is 13.3 µM. As for `CCSc1ccc2nnc(-c3ccc(F)cc3)n2n1`, the AC40 is 17.9 µM. Then `COC(=O)c1ccc2c(=O)[nH]c(CSc3nc(-c4ccc(F)cc4)cs3)nc2c1`, with 4.39 µM; and `Cc1ccc(C)c(OCC(=O)Nc2nonc2NC(=O)COc2cc(C)ccc2C)c1`, with 3.38 µM.

On to `CC(C)CC#Cc1ccc2c(c1)O[C@@H](CN(C)Cc1cccc(F)c1)[C@H](C)CN([C@@H](C)CO)S2(=O)=O`, for which the AC40 was 12.7 µM. Then `CCC(=O)Nc1ccc(NC(=S)NC(=O)c2oc3ccccc3c2C)cc1`, with 3.36 µM.

Regarding `CCCCc1c(-c2ccc(F)cc2F)ncn1CCc1ccccc1OC`, the AC40 is 5.38 µM. `CN(Cc1c(C(=O)N/N=C/c2ccccc2O)nnn1-c1nonc1N)C1CCCCC1`: the AC40 was 5.83 µM. In the case of `FC(F)(F)c1cc(CCN2CCNC[C@H]2Cc2cccc3ccccc23)cc(C(F)(F)F)c1` it was 3.69 µM; in that of `O=C(NCC1OCCc2ccccc21)c1ccc(NC(=O)c2ccc(Cl)cc2Cl)cc1` (stereo not drawn), 17.9 µM. Then `NC(=O)c1ccc2nc(-c3ccccc3)c(-c3ccccc3)nc2c1`, with 19.8 µM. Then `CN(C)CCOc1ccc(-c2c(-c3ccccc3)sc3ccccc23)cc1`, with 1.97 µM; and `Cc1ccccc1CSCc1ccc(C(=O)NCCCN2CCOCC2)o1`, with 26.4 µM; and `O=C(NCC1OCCc2ccccc21)c1ccc(NC(=O)c2cccc(Br)c2)cc1` (stereo not drawn), with 11.1 µM. Take `COc1ccc(N2CCN(c3ccc(NC(=O)C4CCCCC4)cc3C#N)CC2)cc1`: the AC40 was 3.22 µM. In the case of `CCOc1ccc(-c2nnn(CC(=O)Nc3ccccc3OC)n2)cc1OCC` it was 7.27 µM; in that of `COc1cccc(-c2sc3ccccc3c2-c2ccc(OCCN(C)C)cc2)c1`, 2.75 µM. `COCCOc1ccc(C(F)(F)F)cc1NC(=O)c1ccccc1F`: the AC40 is 7.89 µM.

Turning to `CS(=O)(=O)N1CCN(c2ccc(NC(=O)c3ccc(-c4ccc(Cl)cc4)o3)cc2)CC1`, the AC40 was 9.12 µM. Take `N/C(=N\OC(=O)COc1ccc(Cl)cc1Cl)c1cccnc1`: the AC40 is 19.3 µM. Then `COc1ccc(-c2ccc(-c3noc(-c4ccco4)n3)c(OC)n2)cc1`, with 5.41 µM.

For `COc1ccc(S(=O)(=O)N2CCc3ccccc3C2)cc1OC`, the AC40 is > 35 µM (inactive). Then `COCCN(CCOC)Cc1cc(=O)oc2cc(OC)c(Cl)cc12`, with > 35 µM (inactive); and `CC(C)CSc1nc2c(c(=O)[nH]c(=O)n2C)n1CCc1ccccc1`, with 9.29 µM. Consider `CCOC(=O)c1cc(-c2ccc(Cl)s2)nc2c1c(C)nn2C`, for which the AC40 is 13.6 µM. Then `Cc1ccc(NC(=O)c2ccc(COc3ccc4c(c3)CCC4)cc2)c(C)c1`, with 0.841 µM. In the case of `O=C(Nc1ccc(SC(F)F)cc1)c1cccc2nc3ccccc3nc12` it was 10.2 µM. In the case of `CCOC(=O)c1c(C)n(-c2ccc(C)cc2)c2ccc(OCC(O)CN3CCN(C)CC3)cc12` (stereo not drawn) it was 17.2 µM; in that of `N#Cc1nccnc1S(=O)(=O)c1cccs1`, 0.355 µM. As for `c1ccc(Cn2nnc3c(N4CCc5ccccc54)ncnc32)cc1`, the AC40 was 6.35 µM. For `CC(=O)N(C1CC(C)C(C#N)(C#N)C1(C#N)C#N)N(C)C` (stereo not drawn), the AC40 was 0.795 µM. `O=C(N/N=C\c1ccc(CNS(=O)(=O)c2ccc(Cl)cc2)o1)C(=O)Nc1ccc(Oc2ccccc2)cc1`: the AC40 is 1.8 µM. Then `OC(c1ccccc1)(c1nc(-c2cccc(C(F)(F)F)c2)cs1)C(F)(F)F` (stereo not drawn), with 10.1 µM.

These data come from PubChem BioAssay AID977606 (Broad Institute, 2014).
